From a melting point compilation (Tetko et al.; mined from patent text by program, amines drawn as free bases though some values may be those of a salt)

melting point [°C] | SMILES
171 to 172 | CN1CCCCC1CCc1ccccc1NC(=O)c1ccccc1C(=O)O (stereo not given)
153 to 155 | Cn1cc(CCl)c(-c2ccc(Cl)cc2C(=O)c2ccccc2F)n1
124 to 125 | CC(C)(C)C(=O)Nc1ccc(F)cc1
170 to 173 | COc1ccc(-c2cc(C)cn2-c2ccc(S(N)(=O)=O)cc2)cc1F
183 to 184 | Cc1cccc2cc3c(=O)n(Cc4ccccn4)cc(C(=O)NCCN(C)C)c3nc12
112 to 114 | CC(C)C1CC(=O)C(C(=O)NS(=O)(=O)c2ccccc2)C(=O)C1 (stereo not given)
125 to 128 | CC(=O)c1ccc(CNS(=O)(=O)c2ccc(C)cc2)cc1
156 to 160 | CCOC(=O)c1c(Nc2ccccc2C)n[nH]c1C
210 to 212 | CCOC(=O)N1CC2(C1)N=C(N)c1c(F)cccc1N2
208 | COc1ccc(C=C2CCN(C(=O)c3nc4ccc(O)cc4[nH]3)CC2)cc1
181 to 184 | Cc1cnc(NCCc2ccccn2)c(=O)n1NC(=O)CCc1cc(C(F)(F)F)ccc1F
124 to 125 | CCC(C)(CC)CC(=O)C(OC(=C1C(=O)N(C(N)=O)c2cc(Cl)c(F)cc21)c1cccs1)C(=O)O (stereo not given)
225 to 229 | Cc1cc(C)c(-c2nc3ccc(C(=O)c4ccccc4)cc3[nH]2)[nH]1
141 to 143 | COc1ccc(C(=O)NCCC=CCCCNC(=O)c2ccc(OC)cc2)cc1
77 to 78 | CC(C)(O)[C@@H](N)c1ccc2ccccc2c1
104 to 105 | COC(=O)NNC(=S)Cc1ccc(C)cc1
122 to 124 | COc1ccc2ccc(O)c(N=O)c2c1
156 | COc1ccc2c(C(=O)Nc3ccc(CN4CCN(C)CC4)c(C(F)(F)F)c3)nsc2c1
180 to 183 | COc1ccc(CNC(=O)c2cc3c(=O)n(CC#N)c(=O)n(C)c3s2)cc1

melting point [°C] | SMILES
95 to 115 | CCC(=O)c1cc(C2(c3cccc(NC(=O)COC)c3)N=C(N)N(C)C2=O)cn1CC (stereo not given)
82 to 84 | O=C(O)c1ccccc1CCCCc1ccccc1
149 to 151 | COC(=O)c1ccc2oc(-c3cc(C)ccc3OC(C)C)cc(=O)c2c1
263 to 265 | CS(=O)(=O)Nc1c(-c2cc(Cl)ccc2O)c2cc(C(F)(F)F)ccc2[nH]c1=O
73 to 75 | Cc1cccc2c(-c3ccccc3)onc12
213 to 215 | Cc1cccc(C)c1NC(=O)C=CC(=O)c1ccc(Cl)c(Cl)c1
78 to 80 | CCOc1c(NC(C)(C)CC)c(=O)c1=O
124 to 125 | CCOc1ccc2nc(SC)c(C=O)cc2c1
81 to 82 | COc1cccc(Oc2cccnc2C(=O)NCCNC(=O)OC(C)(C)C)c1
> 260 | O=C1c2nc(O)ccc2C(=O)c2c(-c3ccccc3NC(=O)C(F)(F)F)ccnc21
129 to 131 | CCOC(=O)c1c(C)nn(-c2ccc(F)cc2)c1N
120 to 122 | COCCNS(=O)(=O)c1ccc(Nc2nc(OCC3CCCCC3)c3nc[nH]c3n2)cc1
145 to 147 | Cc1ccnc(-c2ccc([N+](=O)[O-])cc2)c1
132 to 134 | COC(=O)c1ccccc1-c1ccc(COc2cc(C)nc3cccnc23)cc1
210 | CC1(C)CCCN(C(=O)[C@H]2C[C@H](S(=O)(=O)c3ccccc3)[C@@H](c3ccccc3F)N2)C1 (racemic)
125 to 127 | CC(C)(C)OC(=O)N1CCN(c2cc(Cl)ccc2N)CC1
118 to 120 | CCOC(=O)C1[C@@H]2[C@@H](O)[C@@H]3O[C@H](c4ccc(OC)cc4)OC[C@H]3O[C@H]12 (stereo not given in full)
175 | CCNS(=O)(=O)c1ccc(C(O)c2ccc3c(c2)C(C)(C)CCC3(C)C)cc1 (stereo not given)
106 | Cc1ncc(C=S)c(Nc2ccccc2)n1

melting point [°C] | SMILES
76 to 79 | O=C(c1ccccc1)N1CCC(CSc2ccccc2)CC1
168 to 170 | CC1(C)Oc2ccc(Cl)cc2C(CS(=O)(=O)NCC(=O)NCCc2ccccc2)C1O (stereo not given)
110 to 113 | CCOC(=O)C(=O)Nc1ccncc1
107 to 109 | O=C(O)CCc1ccccc1Cc1ccc(Cl)cc1
173 to 174 | Fc1cccc(CSc2nnc(-c3ccc4nccn4c3)o2)c1
292 to 295 | Cn1c(=O)c(-c2ccc(Cl)cc2Cl)cc2c3cc(-c4nc(NC(=O)C5CC5)no4)ccc3n(C)c21
99 to 104 | CCc1cccc(N)c1C(=O)O
298 to 301 | COc1ccc2ccc3nc(C(=O)Nc4nnn[nH]4)cn3c2c1
107 to 108 | COc1ccc2c(c1)N(CCNC(C)=O)CCO2
122 to 125 | NS(=O)(=O)c1ccccc1C(=O)c1cccs1
192 to 193 | CN(C)C(=O)c1ccc(NC=O)cc1S(N)(=O)=O
170 to 171 | CC1CC=C(N(C)c2ccccc2)c2ncc(C(=O)O)c(=O)n21 (stereo not given)
268 to 270 | COc1ccc(-c2cc(O)n3nccc3n2)cc1OC
291 to 296 | Cc1nc(N)nc(N)c1-c1ccc(F)cc1F
131 | Oc1ccc(OCc2ccccc2)c2c1OCCO2
154 to 155 | CC(C)CN1C(=O)C(C)(C)C(=O)Nc2cc(C=O)ccc21
70 to 72 | CCN(CC)C(C)COc1ccc(NC(=O)C#Cc2ccc(Cl)cc2Cl)cc1 (stereo not given)
120 to 122 | CC(O)(c1ccsc1)c1nccs1 (stereo not given)

The next lines start with the compound.

SMILES | melting point [°C]
O=C(O)c1cccc(CC2COc3ccc(OCc4ccccc4)cc3C2)c1 (single isomer, unassigned; (+)) | 128 to 130
CCOC(=O)c1cn(C2CC2)c2cc(-c3cc(C)nc(C)c3)c(F)cc2c1=O | 198 to 200
CC(c1ccnnc1)C(O)(Cn1cncn1)c1ccc(Cl)cc1Cl (stereo not given) | 174 to 177
CNC(=O)CC1=CSC2=C(C(=O)OC(C)C)C(C)CN12 (stereo not given) | 203 to 205
N=C(N)N(CCCC(C=O)NC(=O)CNC(=O)CCc1ccccc1)C(=O)OCc1ccccc1 (stereo not given) | 69 to 74
CCN1C(=O)CCC(C)(C)c2cc(Nc3ncc(Cl)c(Nc4ccc(N5CCOCC5)cc4OC)n3)ccc21 | 255
O=C1NC(=O)C2(N1)C1CC3CC(C1)CC2C3 (stereo not given) | 290 to 293
COc1ccc(C2COCCOC2)c2sc(NC(=O)c3ccnc(CN4CCCC4)c3)nc12 | 108 to 111
O=c1[nH]cc(-c2cccc(Cl)c2)c2ncccc12 | 252
CCCN(CCC)C(=O)c1n[nH]c2c(=O)[nH]c3cc(Cl)ccc3c(=O)c12 | 270
Cc1cc(C#N)ccc1N1CCOCC1 | 85 to 86
COC(=O)c1cc2cc(OC)c(OCCCl)cc2nc1N | 145 to 157
c1ccc2c(c1)Cn1cccc1C1CNCCN21 (stereo not given) | 56 to 58
N#Cc1cccc(C=CCN2CCc3nc(N)sc3CC2)c1 | 136 to 140
ON1CCC2(CC1)OC(c1ccccc1)c1ccccc12 (stereo not given) | 184 to 187
CC(=O)Oc1cc(S(=O)(=O)Oc2ccc(C(=O)c3c(Cc4ccccc4)sc(C)c3C)cc2C2CCCC2)ccc1C(=O)O | 94 to 96
CCNC(=O)NC1=C(C(=O)OC)CCNC1=O | 103
CC(c1nc2ccccc2c(=O)n1-c1ccc(F)cc1)N(Cc1cccnc1)C(=O)Cc1ccc(C(F)(F)F)cc1 (stereo not given) | 167
FC(F)=C(F)CCCCSc1nnc(-c2ccc(C(F)(F)F)cc2)o1 | 40
CC(CCCCC(=O)O)C1CCC2C3CCC4CC(O)CCC4(C)C3CC(O)C12C (stereo not given) | 191 to 193
O=C1CCC(c2cc3c(s2)CC(NS(=O)(=O)c2ccccc2)CC3)=NN1 (stereo not given) | 230 to 232
Cc1ccc(-c2ccc3nnn(Cc4ccc5ncccc5c4)c3n2)s1 | 154 to 156

SMILES | melting point [°C]
CCOC(=O)C(C)NC(=O)N(C)N (stereo not given) | 77 to 79.5
O=C(NC1CCCCC1)c1c(O)c2cc(F)ccc2n(Cc2ccccc2)c1=O | 130 to 134
COC(=O)c1ccc(C=CC(=O)N2CCc3c([nH]c4ccccc34)C2c2ccc3c(c2)CCO3)cc1 (stereo not given) | 186
O=[N+]([O-])c1ccc2oc(-c3ccco3)nc2c1 | 175 to 177
O=C(NCc1cccnc1)c1ccc2n1Cc1ccccc1N(C(=O)c1ccc(-c3ccccc3CN3CCCCC3)cc1)C2 | 199 to 202
CCCOCCOc1ccc(-c2ccc3c(c2)C=C(C(=O)O)CCN3Cc2ccccc2)cc1 | 139 to 142
CCS(=O)(=O)Nc1cc(-c2ncnc(C(F)F)c2Cl)c(Cl)cc1Cl | 140 to 142
CN(C(=O)C(F)(F)F)C1Cc2ccc(C(=O)Cn3cnc4cc(-c5ccc(Cl)cc5)sc4c3=O)cc2C1 (stereo not given) | 245 to 248
Cn1nc2c(N)nc3ccccc3c2c1CCCCNS(C)(=O)=O | 188 to 189
COCOc1ccc(Cc2cccc(-c3c(O)c4ccc(Cl)cc4[nH]c3=O)c2)cc1 | 261 to 264
Clc1ccc(C(Cl)Cl)cn1 | 60
COc1ccc(C2=CCC(=O)CC2)c2c1OCCO2 | 56 to 59
CCS(=O)C1(Cl)CC2CC(=O)N2C1C(=O)OCc1ccccc1 (stereo not given) | 123 to 125
CC1Sc2c(C(=O)O)c(=O)c3cc(F)c(N4CCOCC4)cc3n21 (stereo not given) | 192 to 198
CC(C)(CCCCCCCCCCC(C)(C)C(O)C(=O)O)C(O)C(=O)O (stereo not given) | 87 to 100
OCC1(CN(Cc2ccccc2)Cc2ccccc2)CCN(Cc2ccccc2)C1 (stereo not given) | 65 to 67
O=C(Cn1c(-c2ccccc2)ccc(NC(=O)OCc2ccccc2)c1=O)NC(Cc1ccccc1)C(=O)C(F)(F)F (stereo not given) | 178 to 181
O=C(NC(Cc1ccc(OCc2ccccc2)cc1)C(=O)O)c1cn2cc(-c3ccncc3)ccc2n1 (stereo not given) | 268
CC(C)n1nc(-c2nc(-c3nc(-c4ccccc4)cs3)c(N)nc2-c2ccccc2)ccc1=O | 240 to 242
O=c1oc(-c2ccccc2)cc(O)c1Sc1c(O)cc(-c2ccccc2)oc1=O | > 240
c1ccc(CCOCCOc2ccc(OCc3ccccc3)cc2)cc1 | 46 to 49
O=C(O)CCC(=O)OCCn1ccnc1 | 108 to 110
